Results on three compounds are retold here after patent publication US20260327216A1, “SUBSTITUTED OXAZOLONE COMPOUND FOR DECREASING LEVELS OF IKZF I-4 PROTEINS” (BRISTOL-MYERS SQUIBB COMPANY, priority 2023, published 2026).

Some results are limits rather than exact numbers.

In assay [1] the target is IKZF2 Helios (Homo sapiens, UniProt Q96SW2+Q9UKS7). Nature of the assay: Human Regulatory T Cell Reprogramming Assay, IKZF2. Further details: endogenous in cells; host or cells: FACS-sorted human CD4+CD127lowCD25+ Treg cells from healthy leukopaks. The class given is cell-based. Conditions: 12-13 days; for Dmax: Regulatory T cell, human, read-out: IKZF2 Helios max % deg. observed; for Dmax / IKZF2 Helios max % deg. observed: human CD4+CD127lowCD25+ Treg cells, stimulated, 100% = complete degradation. How it is done:
Human CD4^+ T cells were isolated from fresh healthy leukopaks (Stemcell Technologies) using the RosetteSep Human CD4^+ T cell enrichment cocktail (Stemcell Technologies) and Ficoll density gradient centrifugation. Leukopaks were diluted with an equal volume of phosphate-buffered saline (PBS [Gibco]) supplemented with 2% fetal bovine serum (FBS, VWR Lifescience) and incubated with RosetteSep Human CD4^+ T cell enrichment cocktail for 20 minutes before layering on Ficoll-Paque Plus solution (GE Health Care). The cell-rich interface layer was harvested and washed twice with PBS supplemented with 2% FBS. Regulatory T cells were then isolated manually using the EasySep Human CD4^+CD127^lowCD25^+ Regulatory T cell isolation kit (Stemcell Technologies) according to the manufacturer's instructions. Cells were rested overnight in Roswell Park Memorial Institute (RPMI) 1640 media (Gibco) supplemented with 10% FBS, Pen/Strep (Gibco), MEM-NEAA (Gibco), and sodium pyruvate (Gibco) in a humidified incubator (37° C., 5% CO2). Cells were then stained for CD4 (clone: RPA-T4, Biolegend), CD25 (clone: 2A3, BD Biosciences), and CD127 (clone: hIL-7R-M21, BD Biosciences). CD4^+CD127^lowCD25^+ cells were sorted on a BD FACS Aria Fusion sorter to a purity of 95% or greater. Sorted cells were immediately used or cryopreserved for downstream assays.
Fresh or cryopreserved FACS-sorted CD4^+CD127^lowCD25^+ Treg cells were cultured at 25,000-50,000 cells/well of 96-well round bottom plates in RPMI 1640 media (Gibco) supplemented with 10% FBS, Pen/Strep (Gibco), MEM-NEAA (Gibco), and sodium pyruvate (Gibco). Cells were stimulated with Treg Xpander beads (Thermo Fisher) at cells-to-beads ratio of 1:4 in the presence of 500 U/mL recombinant human IL-2 (Proleukin). Compounds were added at titrated doses and cells were incubated at 37°C., 5% CO2 for 12-13 days. Recombinant human IL-2 and compound were replenished every 2-3 days during the entire culture duration. On day 12 or 13, cells were restimulated with phorbol 12-myristate 13-acetate (PMA) and ionomycin in the presence of the protein transport inhibitors brefeldin A and monensin (eBioscience Cell Stimulation Cocktail plus protein transport inhibitors, 500×, Catalog number 00-4975-93) before proceeding with flow cytometry staining and analysis.
For flow cytometry staining, cells were washed twice with flow cytometry staining buffer (Thermo Fisher) and incubated in Human Tru-stain Fc block (Biolegend) for 10 minutes before adding eFluor780 viability dye (Thermo Fisher) and surface marker antibody cocktail for 30 minutes at 4° C. Cells were then fixed and permeabilized by incubation with FoxP3 transcription factor staining buffer (Thermo Fisher) for 30 minutes at 4° C. as per the kit manufacturer's instructions. Cells were washed twice with the Perm/Wash buffer supplied in the kit as per the manufacturer's instructions and incubated overnight at 4° C. with an intracellular antibody cocktail comprised of antibodies specific for the transcription factors shown in Table C. Cells were washed twice with Perm/Wash buffer and resuspended in flow cytometry staining buffer (Thermo Fisher) prior to acquisition. Sample acquisition and analysis was performed using a BD LSRFortessa (BD Biosciences) flow cytometer. Single stain controls for each fluorochrome were prepared using UltraComp eBead Compensation Beads (Thermo Fisher). Data were analyzed using FlowJo version 10 and GraphPad Prism Software.
Table C-1 lists the maximum observed degradation of the IKZF2 protein and IKZF4 protein as measured in the Human Regulatory T Cell Reprogramming assay. The results in Table C-1 were rounded to two digits. In the Human Regulatory T Cell Reprogramming assay, a value of 100% indicated no detectable protein remaining or complete degradation of the protein; and a value of 0% indicated no detectable degradation of the protein by the test compound.

Assay [2] addresses IKZF1 Ikaros (Homo sapiens, UniProt Q13422+Q96SW2). Nature of the assay: Human CD8^+ T Cell Reprogramming Assay, IKZF1. The arrangement: Cryopreserved healthy donor human peripheral blood mononuclear cells (PBMC); endogenous in cells; host or cells: human PBMC from healthy donors (CD8+ T cells by flow cytometry). The class given is cell-based. Conditions: human PBMC, CD8+ T cells; for Dmax: human, 24 h, read-out: IKZF1 Ikaros Maximum Observed Degradation. How it is done:
Cryopreserved healthy donor human peripheral blood mononuclear cells (PBMC) from healthy donors were thawed and seeded at 500,000 cells/well of 96-well round bottom plates in RPMI 1640 media (Gibco) supplemented with 10% FBS, Pen/Strep (Gibco), MEM-NEAA (Gibco), and sodium pyruvate (Gibco). Cells were treated with titrated doses of compound for 24 hours at 37° C., 5% CO2 before analyzing by flow cytometry.
For flow cytometry staining, cells were washed twice with flow cytometry staining buffer (Thermo Fisher) and incubated in Human Tru-stain Fc block (Biolegend) for 10 minutes before adding eFluor780 viability dye (Thermo Fisher) and surface marker antibody cocktail containing LD-eFluor780, CD3-BUV-395, CD4-BUV805, CD8-FITC, and CD25-BV605 for 30 minutes at 4° C. Cells were then fixed and permeabilized by incubation with permeabilization buffer (eBioscience FoxP3 buffer set 00-5523-00) for 30 minutes at 4° C. as per the kit manufacturer's instructions. Cells were washed twice with the Perm/Wash buffer supplied in the kit as per the manufacturer's instructions and incubated overnight at 4° C. with an intracellular antibody cocktail comprised of antibodies specific for the transcription factors (i.e., Foxp3-BV421, HELIOS-PE-Cy7, EOS-PE, IKAROS-PECF594, AIOLOS-AF647). Cells were washed twice with Perm/Wash buffer and resuspended in flow cytometry staining buffer (Thermo Fisher) prior to acquisition. Sample acquisition and analysis was performed using a BD LSRFortessa (BD Biosciences) flow cytometer. Single-stain controls for each fluorochrome were prepared using UltraComp eBead Compensation Beads (Thermo Fisher). Data were analyzed using FlowJo version 10 and GraphPad Prism Software.
Table D-1 lists the maximum observed degradation of the IKZF1 protein and IKZF3 protein as measured in the Human CD8^+ T Cell Reprogramming assay. The results in Table D-1 were rounded to two digits. In the Human CD8^+ T Cell Reprogramming assay, a value of 100% indicated no detectable protein remaining or complete degradation of the protein; and a value of 0% indicated no detectable degradation of the protein by the test compound.

Chain of IKZF2 Helios (Q9UKS7 whole entry): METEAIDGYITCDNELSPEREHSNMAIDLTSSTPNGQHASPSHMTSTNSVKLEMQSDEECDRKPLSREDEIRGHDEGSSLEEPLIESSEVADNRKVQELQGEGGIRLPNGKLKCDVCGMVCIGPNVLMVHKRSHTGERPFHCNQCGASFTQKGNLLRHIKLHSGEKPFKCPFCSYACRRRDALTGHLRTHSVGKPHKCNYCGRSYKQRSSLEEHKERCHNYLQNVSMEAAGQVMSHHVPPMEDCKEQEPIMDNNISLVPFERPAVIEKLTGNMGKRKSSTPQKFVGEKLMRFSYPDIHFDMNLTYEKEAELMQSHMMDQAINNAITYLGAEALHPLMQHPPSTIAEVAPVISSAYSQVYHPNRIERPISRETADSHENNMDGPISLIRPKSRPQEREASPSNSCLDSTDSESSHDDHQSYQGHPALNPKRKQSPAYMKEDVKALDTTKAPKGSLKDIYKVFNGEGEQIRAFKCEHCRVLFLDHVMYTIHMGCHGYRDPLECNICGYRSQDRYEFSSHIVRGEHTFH
Chain of IKZF2 Helios (Q96SW2 whole entry): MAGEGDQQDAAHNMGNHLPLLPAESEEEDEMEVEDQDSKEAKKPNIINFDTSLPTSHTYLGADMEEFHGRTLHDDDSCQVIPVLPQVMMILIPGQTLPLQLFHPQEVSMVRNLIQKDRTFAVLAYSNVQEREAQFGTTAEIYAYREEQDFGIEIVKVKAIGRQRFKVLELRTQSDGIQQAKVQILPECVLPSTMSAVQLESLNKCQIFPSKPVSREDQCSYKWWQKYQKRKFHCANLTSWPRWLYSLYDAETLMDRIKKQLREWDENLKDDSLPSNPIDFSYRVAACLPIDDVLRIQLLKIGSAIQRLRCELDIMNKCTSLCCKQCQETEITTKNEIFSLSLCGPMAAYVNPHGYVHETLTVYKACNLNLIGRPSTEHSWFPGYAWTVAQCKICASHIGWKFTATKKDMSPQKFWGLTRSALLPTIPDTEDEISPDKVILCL
Chain of IKZF2 Helios (Q16531 whole entry partner): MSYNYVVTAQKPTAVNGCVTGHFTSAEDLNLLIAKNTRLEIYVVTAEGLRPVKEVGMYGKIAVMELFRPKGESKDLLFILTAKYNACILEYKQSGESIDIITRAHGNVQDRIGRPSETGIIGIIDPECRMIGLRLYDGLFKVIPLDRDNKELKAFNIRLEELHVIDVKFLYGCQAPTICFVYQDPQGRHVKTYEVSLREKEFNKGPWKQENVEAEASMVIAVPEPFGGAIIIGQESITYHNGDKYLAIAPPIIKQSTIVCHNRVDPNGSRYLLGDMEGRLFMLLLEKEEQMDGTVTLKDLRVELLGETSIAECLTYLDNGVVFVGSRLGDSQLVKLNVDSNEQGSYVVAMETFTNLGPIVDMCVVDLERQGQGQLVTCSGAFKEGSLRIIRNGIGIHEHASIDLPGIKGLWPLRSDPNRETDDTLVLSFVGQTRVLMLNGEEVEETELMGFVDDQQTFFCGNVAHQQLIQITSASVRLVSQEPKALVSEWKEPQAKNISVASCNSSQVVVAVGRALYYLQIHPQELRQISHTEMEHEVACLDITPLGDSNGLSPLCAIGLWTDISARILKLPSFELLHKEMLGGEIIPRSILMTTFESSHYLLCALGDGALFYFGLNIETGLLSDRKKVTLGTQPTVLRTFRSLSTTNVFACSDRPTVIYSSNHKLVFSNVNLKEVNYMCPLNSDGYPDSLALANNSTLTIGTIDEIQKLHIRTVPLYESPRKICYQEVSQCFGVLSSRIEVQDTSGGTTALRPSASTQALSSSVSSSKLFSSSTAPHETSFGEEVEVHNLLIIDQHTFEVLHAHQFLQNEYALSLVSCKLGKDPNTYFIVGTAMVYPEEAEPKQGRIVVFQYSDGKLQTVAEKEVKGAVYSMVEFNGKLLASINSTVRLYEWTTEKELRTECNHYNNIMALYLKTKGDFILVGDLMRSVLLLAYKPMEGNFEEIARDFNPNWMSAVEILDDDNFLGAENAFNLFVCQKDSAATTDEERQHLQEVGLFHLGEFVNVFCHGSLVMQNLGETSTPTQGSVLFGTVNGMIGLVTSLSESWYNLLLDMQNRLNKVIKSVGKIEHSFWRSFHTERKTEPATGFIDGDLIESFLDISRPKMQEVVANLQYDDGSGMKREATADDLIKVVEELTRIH
Chain of IKZF1 Ikaros (Q13422 whole entry): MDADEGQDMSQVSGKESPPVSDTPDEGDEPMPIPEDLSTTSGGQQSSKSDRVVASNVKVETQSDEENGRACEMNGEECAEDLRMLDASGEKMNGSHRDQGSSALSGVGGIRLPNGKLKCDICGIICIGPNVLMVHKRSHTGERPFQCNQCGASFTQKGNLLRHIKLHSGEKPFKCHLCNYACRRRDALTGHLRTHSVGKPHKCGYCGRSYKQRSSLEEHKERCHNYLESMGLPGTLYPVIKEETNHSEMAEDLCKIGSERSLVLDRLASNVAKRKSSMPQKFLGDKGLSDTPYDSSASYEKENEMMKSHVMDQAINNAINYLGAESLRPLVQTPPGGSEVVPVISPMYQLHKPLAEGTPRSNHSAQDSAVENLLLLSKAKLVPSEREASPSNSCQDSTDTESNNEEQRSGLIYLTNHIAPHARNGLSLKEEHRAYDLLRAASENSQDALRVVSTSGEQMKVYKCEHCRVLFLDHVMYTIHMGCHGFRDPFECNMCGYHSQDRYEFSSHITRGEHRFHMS
Chain of IKZF1 Ikaros (Q96SW2 whole entry): as the sequence (Q96SW2 whole entry) above
Chain of IKZF1 Ikaros (Q16531 whole entry partner): as the sequence (Q16531 whole entry partner) above

As for `O=C1CCC(n2cc(-c3ccc(Br)cc3F)oc2=O)C(=O)N1` (centres unmarked) [Comparative Compound B, 3-(5-(4-bromo-2-fluorophenyl)-2-oxooxazol-3(2H)-yl)piperidine-2,6-dione], in assay [1], the Dmax was ≤ 6% and the “IKZF2 Helios max % deg. observed” value is 6%. The Dmax in assay [2] (100% = complete degradation) is 17%.
As for `Cc1cc(-c2ccc(-c3cn(C4CCC(=O)NC4=O)c(=O)o3)c(F)c2)nc(N)c1OC(F)F` (centres unmarked) [Example 1, 3-(5-(4-(6-Amino-5-(difluoromethoxy)-4-methylpyridin-2-yl)-2-fluorophenyl)-2-oxooxazol-3(2H)-yl)piperidine-2,6-dione], the Dmax in assay [1] is 86 to 92%; in assay [2] (100% = complete degradation) it was 68 to 69%. Also, the “IKZF2 Helios max % deg. observed” value in assay [1] was 86-92%. Besides, the DC50 in assay [1] (human Treg cells, concentration reducing protein level by 50% vs DMSO) lay within 1.1 to 1.4 nM; in assay [2] (24 hours, concentration reducing protein level by 50% vs DMSO), 64 to 94 nM. The “IKZF1 Ikaros Maximum Observed Degradation” value in assay [2] (24 hours, 100% = complete degradation, 1440 min) amounted to 69%.
As to `O=C1CCC(n2cc(-c3ccccc3)oc2=O)C(=O)N1` (centres unmarked) [Comparative Compound A, 3-(2-oxo-5-phenyloxazol-3(2H)-yl)piperidine-2,6-dione], the “IKZF2 Helios max % deg. observed” value in assay [1] was found to be 1%. Further, the Dmax in assay [2] (100% = complete degradation) is 74%.
